Reference: the Kinase Knowledgebase extract (Sharma et al. 2016)
pIC50: −log10 of the molar value.

Assays:
EGFR (human) [1] = molecular target: EGFR (human) (UniProt P00533); conditions: mcf7
EGFR (human) [2] = molecular target: EGFR (human) (UniProt P00533); conditions: a549
EGFR (human) [3] = molecular target: EGFR (human) (UniProt P00533); conditions: a431

Chain of EGFR (human) (P00533 whole entry, looked up): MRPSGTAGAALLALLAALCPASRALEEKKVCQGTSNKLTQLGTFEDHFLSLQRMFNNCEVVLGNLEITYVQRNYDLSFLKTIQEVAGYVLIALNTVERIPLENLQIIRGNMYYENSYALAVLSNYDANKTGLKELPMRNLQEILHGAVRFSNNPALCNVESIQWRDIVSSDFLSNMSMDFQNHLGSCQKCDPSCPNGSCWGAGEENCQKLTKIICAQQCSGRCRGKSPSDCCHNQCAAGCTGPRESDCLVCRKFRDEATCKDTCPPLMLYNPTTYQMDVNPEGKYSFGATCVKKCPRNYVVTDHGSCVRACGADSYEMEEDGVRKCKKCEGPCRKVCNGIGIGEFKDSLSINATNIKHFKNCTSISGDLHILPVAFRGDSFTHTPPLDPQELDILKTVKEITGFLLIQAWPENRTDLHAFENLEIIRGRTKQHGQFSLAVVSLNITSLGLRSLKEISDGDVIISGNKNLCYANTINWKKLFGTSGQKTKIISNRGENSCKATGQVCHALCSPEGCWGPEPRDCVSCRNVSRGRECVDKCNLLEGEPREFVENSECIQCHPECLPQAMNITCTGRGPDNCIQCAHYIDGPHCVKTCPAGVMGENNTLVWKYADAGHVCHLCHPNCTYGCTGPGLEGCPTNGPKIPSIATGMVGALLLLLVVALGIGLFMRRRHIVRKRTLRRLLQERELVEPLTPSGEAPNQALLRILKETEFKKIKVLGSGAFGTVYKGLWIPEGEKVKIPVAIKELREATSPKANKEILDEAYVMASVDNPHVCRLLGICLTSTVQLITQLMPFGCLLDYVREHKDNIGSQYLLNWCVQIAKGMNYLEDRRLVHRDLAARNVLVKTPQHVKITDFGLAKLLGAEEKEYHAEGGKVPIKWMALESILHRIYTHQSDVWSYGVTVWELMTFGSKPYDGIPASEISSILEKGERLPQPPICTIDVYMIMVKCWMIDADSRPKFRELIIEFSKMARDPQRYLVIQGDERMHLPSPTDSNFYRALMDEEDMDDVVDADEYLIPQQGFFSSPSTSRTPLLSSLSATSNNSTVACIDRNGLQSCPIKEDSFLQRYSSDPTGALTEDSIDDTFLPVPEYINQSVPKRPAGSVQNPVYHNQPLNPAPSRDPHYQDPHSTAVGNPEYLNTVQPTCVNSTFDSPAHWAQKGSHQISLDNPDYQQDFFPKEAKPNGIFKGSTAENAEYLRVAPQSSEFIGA

Row | Compound | pIC50 (EGFR (human) [1]) | pIC50 (EGFR (human) [2]) | pIC50 (EGFR (human) [3])
1 | Clc1cccc(Nc2ncnc3ccc(NCc4ccc5c(c4)OCCCCO5)cc23)c1 | 4.50 | 4.17 | 4.70
2 | O=C(Nc1ccc2ncnc(Nc3cccc(Br)c3)c2c1)C1COc2ccccc2O1 (centres undefined) | 3.82 | 3.95 | 4.19
3 | Brc1cccc(Nc2ncnc3ccc(NCc4ccc5c(c4)OCCCCO5)cc23)c1 | 4.32 | < 3.83 | 4.65
4 | Brc1cccc(Nc2ncnc3ccc(NCc4ccc5c(c4)OCO5)cc23)c1 | 4.67 | 3.99 | 4.99
5 | O=C(Nc1ccc2ncnc(Nc3cccc(Br)c3)c2c1)c1cccc2c1OCCO2 | 4.03 | 3.88 | 4.50
6 | Brc1cccc(Nc2ncnc3ccc(NCc4ccc5c(c4)OCCO5)cc23)c1 | 4.84 | 4.10 | 4.77
7 | Brc1cccc(Nc2ncnc3cc4c(cc23)OCCO4)c1 | – | – | 6.12
8 | Fc1cc(Br)ccc1Nc1ncnc2cc3c(cc12)OCCO3 | – | – | 5.20
9 | O=C(Nc1ccc2ncnc(Nc3cccc(Cl)c3)c2c1)C1COc2ccccc2O1 (centres undefined) | 4.11 | 4.04 | 4.53
10 | O=C(Nc1ccc2ncnc(Nc3cccc(Cl)c3)c2c1)c1cccc2c1OCCO2 | 3.82 | < 3.82 | 4.15
11 | Clc1cccc(Nc2ncnc3ccc(NCc4ccc5c(c4)OCCCO5)cc23)c1 | 5.21 | 4.35 | 5.42
12 | FC(F)(F)c1cccc(Nc2ncnc3cc4c(cc23)OCCO4)c1 | – | – | 6.11
13 | Brc1cccc(Nc2ncnc3ccc(NCc4ccc5c(c4)OCCCO5)cc23)c1 | 5.14 | 4.65 | 5.39
14 | Cc1cccc(Nc2ncnc3cc4c(cc23)OCCO4)c1 | – | – | 6.17
